Reference: ChEMBL document CHEMBL1909046, “DrugMatrix in vitro pharmacology data”
pIC50, pKi: −log10 of the molar value.

Experiments:
[1] = molecular target: 5-hydroxytryptamine receptor 4 (Cavia porcellus, UniProt O70528); assay type: cell membranes, Dunkin-Hartley, Striatum, Membrane; further: in other assays of this panel Not Active means under 50% inhibition at 10 µM
[2] = DRUGMATRIX: Calcium Channel Type L, Phenylalkylamine radioligand binding (ligand: [3H] (-)-Desmethoxyverapamil (D-888)); assay type: cell membranes, Rattus norvegicus, Wistar, Brain, Membrane; conditions: Not Active = under 50% inhibition at 10 µM; for pIC50: read-out: IC50; for pKi: read-out: Ki
[3] = molecular target: Histamine H2 receptor (Homo sapiens, UniProt P25021); assay type: cell membranes, CHO-K1, Membrane; conditions: for IC50 / Ki: cho-k1; on all read-outs here: in other assays of this panel Not Active means under 50% inhibition at 10 µM
Sequence of Histamine H2 receptor (P25021 whole entry): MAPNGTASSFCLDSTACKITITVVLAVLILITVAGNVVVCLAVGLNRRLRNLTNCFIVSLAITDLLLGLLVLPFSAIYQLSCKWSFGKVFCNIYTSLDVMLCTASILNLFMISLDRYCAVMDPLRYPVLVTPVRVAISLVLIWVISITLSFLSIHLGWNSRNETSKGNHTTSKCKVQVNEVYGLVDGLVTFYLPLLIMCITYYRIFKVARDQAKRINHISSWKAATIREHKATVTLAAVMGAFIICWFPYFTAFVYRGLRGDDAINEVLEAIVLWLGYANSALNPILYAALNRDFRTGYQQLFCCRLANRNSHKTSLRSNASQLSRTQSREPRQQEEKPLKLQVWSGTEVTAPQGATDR

[4] = DRUGMATRIX: Interleukin IL-1 radioligand binding (ligand: [125I] interleukin 1beta); assay type: cell membranes, Membrane; conditions: nih3t3; Not Active = under 50% inhibition at 10 µM
[5] = molecular target: T1, Cysteinyl leukotriene receptor 1 (Homo sapiens, UniProt Q9Y271); assay type: cell membranes, CHO-K1, Membrane; conditions: cho-k1; further: in other assays of this panel Not Active means under 50% inhibition at 10 µM
T1 sequence (Q9Y271 whole entry): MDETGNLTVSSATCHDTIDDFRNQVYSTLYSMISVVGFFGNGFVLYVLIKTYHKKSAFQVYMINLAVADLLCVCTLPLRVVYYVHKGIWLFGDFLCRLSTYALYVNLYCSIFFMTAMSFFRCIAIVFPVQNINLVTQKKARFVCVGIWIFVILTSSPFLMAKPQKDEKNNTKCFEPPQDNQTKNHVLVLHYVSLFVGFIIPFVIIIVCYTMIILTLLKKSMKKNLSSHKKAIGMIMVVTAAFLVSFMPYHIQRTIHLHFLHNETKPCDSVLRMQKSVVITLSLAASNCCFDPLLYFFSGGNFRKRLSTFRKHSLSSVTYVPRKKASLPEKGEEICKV

[6] = molecular target: T2, Neuropeptide Y receptor type 2 (Homo sapiens, UniProt P49146); assay type: cell membranes, Membrane; conditions: kan-ts; further: in other assays of this panel Not Active means under 50% inhibition at 10 µM
T2 sequence (P49146 whole entry): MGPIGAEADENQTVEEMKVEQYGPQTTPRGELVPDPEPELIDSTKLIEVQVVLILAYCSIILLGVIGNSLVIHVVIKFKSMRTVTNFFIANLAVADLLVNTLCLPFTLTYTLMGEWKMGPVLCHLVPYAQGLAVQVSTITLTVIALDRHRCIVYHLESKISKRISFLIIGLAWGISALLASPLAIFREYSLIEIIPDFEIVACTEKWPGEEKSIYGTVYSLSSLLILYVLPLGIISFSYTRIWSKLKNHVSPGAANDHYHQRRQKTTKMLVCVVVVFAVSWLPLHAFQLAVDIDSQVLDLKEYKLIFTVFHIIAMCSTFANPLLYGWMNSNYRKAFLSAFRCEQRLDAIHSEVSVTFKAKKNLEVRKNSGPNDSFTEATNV

Sequence of 5-hydroxytryptamine receptor 4 (O70528 whole entry): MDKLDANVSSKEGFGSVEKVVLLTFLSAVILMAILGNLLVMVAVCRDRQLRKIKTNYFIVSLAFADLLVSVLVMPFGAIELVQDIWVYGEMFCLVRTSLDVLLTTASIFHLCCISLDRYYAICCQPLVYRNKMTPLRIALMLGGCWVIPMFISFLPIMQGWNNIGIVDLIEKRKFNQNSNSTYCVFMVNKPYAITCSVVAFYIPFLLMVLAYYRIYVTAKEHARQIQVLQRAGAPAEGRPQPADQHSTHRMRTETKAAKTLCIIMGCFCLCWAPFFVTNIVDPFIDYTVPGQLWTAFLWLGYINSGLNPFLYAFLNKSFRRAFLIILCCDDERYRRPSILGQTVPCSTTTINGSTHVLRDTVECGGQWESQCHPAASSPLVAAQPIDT

O=c1[nH]c(=O)n([C@H]2C[C@H](O)[C@@H](CO)O2)cc1I [IDOXURIDINE]
Not Active: IC50 [1] | IC50 [2] | Ki [2] | IC50 [3] | IC50 [4] | Ki [4] | IC50 [5] | IC50 [6]

CC1Cc2ccccc2N1NC(=O)c1ccc(Cl)c(S(N)(=O)=O)c1 (stereo unspecified) [INDAPAMIDE]
Not Active: IC50 [1] | IC50 [2] | Ki [2] | IC50 [3] | IC50 [4] | Ki [4] | IC50 [5] | IC50 [6]

Nc1nc(N)nc(-c2cc(Cl)ccc2Cl)n1.O=C(O)/C=C\C(=O)O [IRSOGLADINE MALEATE]
Not Active: IC50 [1] | IC50 [2] | Ki [2] | IC50 [3] | IC50 [4] | Ki [4] | IC50 [5] | IC50 [6]

CCC(C)n1ncn(-c2ccc(N3CCN(c4ccc(OCC5COC(Cn6cncn6)(c6ccc(Cl)cc6Cl)O5)cc4)CC3)cc2)c1=O (stereo unspecified) [ITRACONAZOLE]
Not Active: IC50 [1] | IC50 [2] | Ki [2] | IC50 [3] | IC50 [4] | Ki [4] | IC50 [5] | IC50 [6]

CCCCN1CCCC[C@H]1C(=O)Nc1c(C)cccc1C [LEVOBUPIVACAINE]
Not Active: IC50 [1] | IC50 [2] | Ki [2] | IC50 [3] | IC50 [4] | Ki [4] | IC50 [5] | IC50 [6]

CCCCc1nc(Cl)c(CO)n1Cc1ccc(-c2ccccc2-c2nnn[nH]2)cc1 [LOSARTAN]
Not Active: IC50 [1] | IC50 [2] | Ki [2] | IC50 [3] | IC50 [4] | Ki [4] | IC50 [5] | IC50 [6]

Sc1ncnc2nc[nH]c12 [MERCAPTOPURINE ANHYDROUS]
Not Active: IC50 [1] | IC50 [2] | Ki [2] | IC50 [3] | IC50 [4] | Ki [4] | IC50 [5] | IC50 [6]

C[C@](N)(Cc1ccc(O)c(O)c1)C(=O)O [METHYLDOPA]
Not Active: IC50 [1] | IC50 [2] | Ki [2] | IC50 [3] | IC50 [4] | Ki [4] | IC50 [5] | IC50 [6]

C[C@]12CCC(=O)C=C1CC[C@@H]1[C@@H]2CC[C@@]2(C)[C@H]1CC[C@]2(C)O [METHYLTESTOSTERONE]
Not Active: IC50 [1] | IC50 [2] | Ki [2] | IC50 [3] | IC50 [4] | Ki [4] | IC50 [5] | IC50 [6]

Cc1ccccc1N1C(=O)c2cc(S(N)(=O)=O)c(Cl)cc2NC1C (stereo unspecified) [METOLAZONE]
Not Active: IC50 [1] | IC50 [2] | Ki [2] | IC50 [3] | IC50 [4] | Ki [4] | IC50 [5] | IC50 [6]

COCCc1ccc(OCC(O)CNC(C)C)cc1 (stereo unspecified) [METOPROLOL]
Not Active: IC50 [1] | IC50 [2] | Ki [2] | IC50 [3] | IC50 [4] | Ki [4] | IC50 [5] | IC50 [6]

CCn1cc(C(=O)O)c(=O)c2cc(F)c(N3CCNCC3)cc21 [NORFLOXACIN]
Not Active: IC50 [1] | IC50 [2] | Ki [2] | IC50 [3] | IC50 [4] | Ki [4] | IC50 [5] | IC50 [6]

NC1=NC(=O)C(c2ccccc2)O1 (stereo unspecified) [PEMOLINE]
Not Active: IC50 [1] | IC50 [2] | Ki [2] | IC50 [3] | IC50 [4] | Ki [4] | IC50 [5] | IC50 [6]

Nc1nc2c(ncn2CCC(CO)CO)c(=O)[nH]1 [PENCICLOVIR]
Not Active: IC50 [1] | IC50 [2] | Ki [2] | IC50 [3] | IC50 [4] | Ki [4] | IC50 [5] | IC50 [6]

C=C(C)C1(O)OC(=O)C=C1OC (stereo unspecified) [PENICILLIC ACID]
Not Active: IC50 [1] | IC50 [2] | Ki [2] | IC50 [3] | IC50 [4] | Ki [4] | IC50 [5] | IC50 [6]

CC1(C)S[C@@H]2[C@H](NC(=O)Cc3ccccc3)C(=O)N2[C@H]1C(=O)O [PENICILLIN G]
Not Active: IC50 [1] | IC50 [2] | Ki [2] | IC50 [3] | IC50 [4] | Ki [4] | IC50 [5] | IC50 [6]

CCCN1C[C@H](CSC)C[C@@H]2c3cccc4[nH]cc(c34)C[C@H]21 [PERGOLIDE]
Not Active: IC50 [1] | IC50 [3] | IC50 [4] | Ki [4] | IC50 [5] | IC50 [6]
6.05: pKi [2]
6.04: pIC50 [2]

C1CCC(C(CC2CCCCN2)C2CCCCC2)CC1 (stereo unspecified) [PERHEXILINE]
5.88: pKi [2]
Not Active: IC50 [1] | IC50 [3] | IC50 [4] | Ki [4] | IC50 [5] | IC50 [6]
5.87: pIC50 [2]

CCOc1ccc(NC(C)=O)cc1 [PHENACETIN]
Not Active: IC50 [1] | IC50 [2] | Ki [2] | IC50 [3] | IC50 [4] | Ki [4] | IC50 [5] | IC50 [6]

Cc1ccc(N(CC2=NCCN2)c2cccc(O)c2)cc1 [PHENTOLAMINE]
6.13: pIC50 [2]
6.14: pKi [2]
Not Active: IC50 [1] | IC50 [3] | IC50 [4] | Ki [4] | IC50 [5] | IC50 [6]

CNNCc1ccc(C(=O)NC(C)C)cc1 [PROCARBAZINE]
Not Active: IC50 [1] | IC50 [2] | Ki [2] | IC50 [3] | IC50 [4] | Ki [4] | IC50 [5] | IC50 [6]

CN(C)CCCN1c2ccccc2Sc2ccccc21 [PROMAZINE]
5.94: pKi [2]
5.92: pIC50 [2]
5.55: pKi ([3]; read-out: Ki)
5.54: pIC50 ([3]; read-out: IC50)
Not Active: IC50 [1] | IC50 [4] | Ki [4] | IC50 [5] | IC50 [6]

CC(O)CO (stereo unspecified) [PROPYLENE GLYCOL]
Not Active: IC50 [1] | IC50 [2] | Ki [2] | IC50 [3] | IC50 [4] | Ki [4] | IC50 [5] | IC50 [6]

CADMIUM ACETATE
Not Active: IC50 [1] | Ki [1] | IC50 [2] | Ki [2] | IC50 [3] | Ki [3] | IC50 [4] | Ki [4] | IC50 [5] | Ki [5] | IC50 [6] | Ki [6]

LEAD (II) ACETATE
Not Active: IC50 [1] | Ki [1] | IC50 [2] | Ki [2] | IC50 [3] | Ki [3] | IC50 [4] | Ki [4] | IC50 [5] | Ki [5] | IC50 [6] | Ki [6]

LIPOPOLYSACCHARIDE E. COLI O55:B5
Not Active: IC50 [1] | Ki [1] | IC50 [2] | Ki [2] | IC50 [3] | Ki [3] | IC50 [4] | Ki [4] | IC50 [5] | Ki [5] | IC50 [6] | Ki [6]
